Test results as given in ChEMBL document CHEMBL4118212, “Structure-activity relationship of uridine-based nucleoside phosphoramidate prodrugs for inhibition of dengue virus RNA-dependent RNA polymerase” (Bioorg Med Chem Lett, 2018).

Key:
[1] = molecular target: Nonstructural protein 5 (Dengue virus, UniProt V5TFZ2); assay: Inhibition of Dengue virus RdRp activity using 5'-(TCAG)20(TCCAAG)14(TCAG)20-3' as template measured after 120 mins
[2] = molecular target: POLRMT (DNA-directed RNA polymerase, mitochondrial) (Homo sapiens, UniProt O00411); assay: Inhibition of human POLRMT using 5'-FAM labelled RNA primer/DNA template duplex assessed as single nucleotide incorporation rate at 500 uM after 5 mins by SDS-PAGE analysis relative to control; parameters: scale not given: the % may be the effect or the level left; conditions: probe 5'-FAM labelled RNA primer/DNA template duplex, read-out: Activity
POLRMT (DNA-directed RNA polymerase, mitochondrial), sequence (O00411 whole entry): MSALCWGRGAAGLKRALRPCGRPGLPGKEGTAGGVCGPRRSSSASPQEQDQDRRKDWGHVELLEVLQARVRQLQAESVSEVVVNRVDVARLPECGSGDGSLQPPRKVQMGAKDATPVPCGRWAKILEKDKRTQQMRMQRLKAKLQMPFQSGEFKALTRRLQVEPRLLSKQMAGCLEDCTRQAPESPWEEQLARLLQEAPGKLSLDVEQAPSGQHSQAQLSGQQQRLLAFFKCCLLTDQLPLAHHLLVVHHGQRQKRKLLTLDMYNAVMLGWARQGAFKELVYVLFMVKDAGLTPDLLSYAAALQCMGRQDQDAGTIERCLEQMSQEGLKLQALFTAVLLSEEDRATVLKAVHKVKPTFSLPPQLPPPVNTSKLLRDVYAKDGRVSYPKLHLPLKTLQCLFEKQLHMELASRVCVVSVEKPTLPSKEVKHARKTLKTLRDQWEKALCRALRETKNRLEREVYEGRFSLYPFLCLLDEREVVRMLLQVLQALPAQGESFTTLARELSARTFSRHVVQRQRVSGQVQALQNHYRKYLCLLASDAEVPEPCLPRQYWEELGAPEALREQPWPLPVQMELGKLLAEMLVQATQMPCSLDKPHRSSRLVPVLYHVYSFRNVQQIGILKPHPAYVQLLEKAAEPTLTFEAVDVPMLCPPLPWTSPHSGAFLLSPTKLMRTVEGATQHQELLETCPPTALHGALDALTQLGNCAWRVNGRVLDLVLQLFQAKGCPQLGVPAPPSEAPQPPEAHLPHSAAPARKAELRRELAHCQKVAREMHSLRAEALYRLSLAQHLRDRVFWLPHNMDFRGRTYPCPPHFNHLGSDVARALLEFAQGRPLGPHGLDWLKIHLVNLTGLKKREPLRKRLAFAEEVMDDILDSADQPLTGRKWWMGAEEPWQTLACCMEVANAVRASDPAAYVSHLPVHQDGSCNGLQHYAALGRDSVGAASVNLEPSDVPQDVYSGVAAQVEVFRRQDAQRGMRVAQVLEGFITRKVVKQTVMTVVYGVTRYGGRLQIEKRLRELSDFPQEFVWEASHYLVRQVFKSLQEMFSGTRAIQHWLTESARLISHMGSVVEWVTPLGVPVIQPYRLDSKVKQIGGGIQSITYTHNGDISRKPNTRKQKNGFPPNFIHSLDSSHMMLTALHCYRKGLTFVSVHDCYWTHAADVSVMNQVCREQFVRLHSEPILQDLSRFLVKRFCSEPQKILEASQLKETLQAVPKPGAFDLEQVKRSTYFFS

[3] = Inhibition of recombinant human mitochondrial DNA polymerase gamma expressed in Escherichia coli BL21(DE3) cells assessed as single nucleotide incorporation rate at 100 uM relative to NTP; parameters: scale not given: the % may be the effect or the level left
[4] = Cytotoxicity against human HepG2 cells after 96 hrs by CCK-8 assay; format: cell-based
[5] = system: dengue virus type 2; assay: Antiviral activity against Dengue virus 2 infected in human HuH7 cells by replicon assay; format: functional, organism-based; conditions: Huh-7
[6] = system: dengue virus type 2; assay: Antiviral activity against Dengue virus 2 infected in human PBMC after 2 days post infection by plaque assay; format: functional, organism-based; conditions: 48 h
[7] = Cytotoxicity against human K562 cells; format: cell-based
[8] = Mitochondrial toxicity in human PC3 cells assessed as effect on mitochondrial protein synthesis measured after 5 days by ELISA; format: cell-based, PC-3
[9] = Cytotoxicity against human MT4 cells; format: cell-based
[10] = system: dengue virus type 2; assay: Antiviral activity against Dengue virus 2 infected in human PBMC after 24 hrs post infection by plaque assay; format: functional, organism-based
[11] = molecular target: DNA-directed RNA polymerase, mitochondrial (Homo sapiens, UniProt O00411); assay: Inhibition of human full length POLRMT using 32P-RNA primer/DNA template assessed as single nucleotide incorporation rate at 500 uM by SDS-PAGE analysis relative to CTP; parameters: scale not given: the % may be the effect or the level left
DNA-directed RNA polymerase, mitochondrial, sequence (O00411 whole entry): as above

Nonstructural protein 5, sequence (V5TFZ2 whole entry): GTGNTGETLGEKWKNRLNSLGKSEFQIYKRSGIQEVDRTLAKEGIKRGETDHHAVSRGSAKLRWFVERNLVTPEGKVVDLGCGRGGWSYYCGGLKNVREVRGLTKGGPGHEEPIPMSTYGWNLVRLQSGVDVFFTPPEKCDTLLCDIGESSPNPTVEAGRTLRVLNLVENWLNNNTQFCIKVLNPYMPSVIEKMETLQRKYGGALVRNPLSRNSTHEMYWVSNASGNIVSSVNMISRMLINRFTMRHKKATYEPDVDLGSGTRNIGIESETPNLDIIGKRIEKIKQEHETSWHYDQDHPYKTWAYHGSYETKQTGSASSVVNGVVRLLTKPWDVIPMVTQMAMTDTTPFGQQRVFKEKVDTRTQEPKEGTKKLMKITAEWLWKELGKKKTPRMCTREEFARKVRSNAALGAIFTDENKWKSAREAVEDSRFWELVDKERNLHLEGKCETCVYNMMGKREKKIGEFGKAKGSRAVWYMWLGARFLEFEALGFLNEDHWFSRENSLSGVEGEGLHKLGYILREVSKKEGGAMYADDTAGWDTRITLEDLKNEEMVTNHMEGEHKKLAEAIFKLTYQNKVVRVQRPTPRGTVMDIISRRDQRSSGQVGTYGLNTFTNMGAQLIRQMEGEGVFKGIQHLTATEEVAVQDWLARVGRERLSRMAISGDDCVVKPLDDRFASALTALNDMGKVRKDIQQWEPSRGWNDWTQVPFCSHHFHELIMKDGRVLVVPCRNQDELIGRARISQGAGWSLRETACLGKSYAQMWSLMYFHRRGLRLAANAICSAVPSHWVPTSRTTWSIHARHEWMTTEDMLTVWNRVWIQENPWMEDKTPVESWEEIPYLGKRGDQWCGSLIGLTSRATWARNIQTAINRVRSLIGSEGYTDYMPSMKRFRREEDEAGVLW

| Compound | IC50 [1] [µM] | activity at 5 min, 500 µM [2] [%] | CC50 at 96 h [4] [µM] | EC50 [6] [µM] | also measured |
| --- | --- | --- | --- | --- | --- |
| C#C[C@]1(O)[C@H](n2ccc(=O)[nH]c2=O)O[C@](F)(COP(=O)(O)OP(=O)(O)OP(=O)(O)O)[C@H]1O | 0.65 | 3 |  |  | Activity [3]: 0% |
| CC#C[C@@]1(F)[C@H](O)[C@@H](CO[P@@](=O)(N[C@@H](C)C(=O)OC(C)C)Oc2ccccc2)O[C@H]1n1ccc(=O)[nH]c1=O |  |  | > 50 |  | EC50 [5]: > 100 µM |
| C#C[C@]1(O)[C@H](n2ccc(=O)[nH]c2=O)O[C@](F)(CO[P@@](=O)(N[C@@H](C)C(=O)OC(C)C)Oc2ccccc2)[C@H]1O |  |  | > 50 | 0.57 | CC50 [7]: > 50 µM; CC50 at 120 h [8]: > 200 µM; CC50 [9]: > 50 µM |
| CC#C[C@@]1(O)[C@H](O)[C@@H](CO[P@@](=O)(N[C@@H](C)C(=O)OC(C)C)Oc2ccccc2)O[C@H]1n1ccc(=O)[nH]c1=O |  |  | > 50 | 1.9 |  |
| C#C[C@@]1(O)[C@H](O)[C@@H](COP(=O)(O)OP(=O)(O)OP(=O)(O)O)O[C@H]1n1ccc(=O)[nH]c1=O | 1.6 | 16.8 |  |  |  |
| CC#C[C@]1(O)[C@H](n2ccc(=O)[nH]c2=O)O[C@](F)(COP(=O)(O)OP(=O)(O)OP(=O)(O)O)[C@H]1O | 2.8 | 1.7 |  |  |  |
| CC#C[C@@]1(O)[C@H](O)[C@@H](COP(=O)(O)OP(=O)(O)OP(=O)(O)O)O[C@H]1n1ccc(=O)[nH]c1=O | 2 | 6.7 |  |  |  |
| C#C[C@@]1(F)[C@H](O)[C@@H](COP(=O)(O)OP(=O)(O)OP(=O)(O)O)O[C@H]1n1ccc(=O)[nH]c1=O | 15.9 | 2 |  |  |  |
| C#C[C@@]1(F)[C@H](O)[C@@H](CO[P@@](=O)(N[C@@H](C)C(=O)OC(C)C)Oc2ccccc2)O[C@H]1n1ccc(=O)[nH]c1=O |  |  | > 50 | > 25 |  |
| CC#C[C@]1(O)[C@H](n2ccc(=O)[nH]c2=O)O[C@](F)(CO[P@@](=O)(N[C@@H](C)C(=O)OC(C)C)Oc2ccccc2)[C@H]1O |  |  | > 50 | 9 |  |
| C#C[C@@]1(O)[C@H](O)[C@@H](CO[P@@](=O)(N[C@@H](C)C(=O)OC(C)C)Oc2ccccc2)O[C@H]1n1ccc(=O)[nH]c1=O |  |  | > 50 | 0.45 |  |
| CC#C[C@@]1(F)[C@H](O)[C@@H](COP(=O)(O)OP(=O)(O)OP(=O)(O)O)O[C@H]1n1ccc(=O)[nH]c1=O | > 20 | 2.2 |  |  |  |
| C[C@@]1(O)[C@H](O)[C@@H](COP(=O)(O)OP(=O)(O)OP(=O)(O)O)O[C@H]1n1ccc(=O)[nH]c1=O | 5 | 29.4 |  |  |  |
| CC(C)OC(=O)[C@H](C)NP(=O)(OC[C@H]1O[C@@H](n2ccc(=O)[nH]c2=O)[C@](C)(O)[C@@H]1O)Oc1ccccc1 (mixture of isomers) |  |  | > 50 | 0.19 |  |
| [N-]=[N+]=N[C@]1(CO)O[C@@H](n2ccc(N)nc2=O)[C@H](O)[C@@H]1O [4'-AZIDOCYTIDINE] |  |  |  |  | EC50 [10]: 0.25 µM; Activity [11]: 91% |
| C[C@]1(O)[C@H](n2ccc(=O)[nH]c2=O)O[C@](F)(COP(=O)(O)OP(=O)(O)OP(=O)(O)O)[C@H]1O [ADAFOSBUVIR 5'-TRIPHOSPHATE] | 6.6 | 5.7 |  |  |  |
| CC(C)OC(=O)[C@H](C)N[P@](=O)(OC[C@@]1(F)O[C@@H](n2ccc(=O)[nH]c2=O)[C@](C)(O)[C@@H]1O)Oc1ccccc1 [ADAFOSBUVIR] |  |  | > 50 | 1.1 |  |
| C[C@@]1(F)[C@H](O)[C@@H](COP(=O)(O)OP(=O)(O)OP(=O)(O)O)O[C@H]1n1ccc(=O)[nH]c1=O [GS-461203] | 18 | 1.8 |  |  |  |
| CC(C)OC(=O)[C@H](C)N[P@](=O)(OC[C@H]1O[C@@H](n2ccc(=O)[nH]c2=O)[C@](C)(F)[C@@H]1O)Oc1ccccc1 [SOFOSBUVIR] |  |  | > 50 | 1.2 |  |
